Test results published in patent US20210290680A1, “METHODS AND COMPOSITIONS FOR MODULATING CELLULAR AGING” (Dorian Therapeutics, Inc., priority 2019, published 2021).

Columns and labels:
LEF1 = assay: qPCR of WNT pathway regulator LEF1; type: cell-based, human; settings: for LEF1 expression, fold change vs Control: CD19.CAR; for LEF1 expression, fold change vs Control / LEF1 expression vs Control: day 15, n=4; for LEF1 expression vs Control: GD2.CAR
Text: Primary T cells were activated as described (Example 3), transduced with a lentivirus encoding either a shUSP16 #1, shUSP16 #2 or a non-targeting shRNA (shCtrl) and cells were selected with puromycin at day 6. At day 15 cell were collected and analyzed by qPCR for the expression of LEF1 (FIG. 16A) and TCF7 (FIG. 16B), downstream regulators of the WNT pathway. At day 20, cells were stained for CD4-PE, CD8-BV510, CD62L-Allophycocyanin and CD45RA-APC-Cy7 (Biolegend). Stem cell memory T cells (Tscm) were identified as Sytox^− GFP^+CD45RA^+CD62L^+, central memory T cells (Tcm) as Sytox^−GFP^+CD45RA^−CD62L^+, effector memory T cells (Tem) as Sytox^−GFP^+CD45RA^−CD62L^−, and terminal effector T cell (Teff) as Sytox^−GFP^+CD45RA^+CD62L^− (FIG. 17A). Cells were gated on the CD8 population. The specific increase of Tscm was shown as phenotype ratio (FIG. 17B).
Primary T cells were activated as described (Example 3), transduced with a lentivirus encoding for either a CD19.CAR or a GD2.CAR co-expressing shUSP16 #1, shUSP16 #2 or a scrambled shRNA (Control). Fifteen days post-activation, T cells were collected and qPCR performed. TaqMan probes detecting CDKN1A, CDKN2A (FIGS. 26A and 26B) (fold change GD2.CAR (n=4): CDKN1A Control vs shUSP #1: 0.4360, p<0.0001, and Control vs shUSP16 #2: 3.036, p=0.004 respectively. Fold change CD19.CAR (n=4): CDKN2a, CDKN1A Control vs shUSP #1: 0.6906, p=0.0026; 0.7228, p=0.0297 and Control vs shUSP16 #2: 0.8385, p=0.2325; 0.7017, p=0.0021), TCF7, LEF1, and Axin-2 (FIGS. 27A and B) were analyzed in GD2.CAR and CD19.CAR-expressing cells, respectively. ACTB was used as internal control. (GD2.CAR (n=4) TCF7, LEF1 and Axin-2: Control vs shUSP #1: 1.914 p=0.0512; 1.795 p=0.0323; 3.269 p=0.15 and Control vs shUSP16 #2: 1.284 p=0.0494; 1.718 p=0.0586; 2.035p=0.235, respectively. Fold change CD19.CAR (n=4): TCF7, LEF1 and Axin-2: Control vs shUSP #1: 1.528, p=0.0277; 1.82, p=0.0449; 1.998, p=0.031 and Control vs shUSP16 #2: 1.18, p=0.2002; 1.579, p=0.0632; 1.261, p=0.2382). USP16 downregulation in CAR-T cells results in a decreased expression of senescence markers and an increase in the expression of genes associated with the activation/increased signaling of the WNT pathway, indicating its importance in delaying cellular senescence and increasing self-renewal.

NALM leukemia cell line = assay: In vivo anti-tumor activity of CD19.CAR T cells (circulating Gaussia luciferase); settings: immunocompromised mice, one million CD19.CAR T cells via tail vein, n=4-6
Protocol: Primary T cells were activated and prepared, as in Example 26. NALM leukemia cell line was transduced with Gaussia Luciferase and one million cells were injected via tail vein at d−4. One million of CD19.CAR T cells were then infused via tail vein at d=0 and mice were weighted, and blood was collected every week (FIG. 38). Tumor growth was monitor by weekly assessment of circulating luciferase. Briefly, blood was collected and subsequently analyzed for luciferase expression using Nanolight Technologies Luciferase detection Kit. Luciferase expression (calculated as GLuc, RLU (Relative Luminescence Unit)) in the blood correlates with tumor engraftment. As NALM cells engraft primarily in the spleen, at the time of sacrifice, the spleens were collected and photographed (FIG. 39B), the size of the spleen directly correlates to the amount of tumor infiltrated in the organ.

Row | Substance | LEF1 expression, fold change vs Control (LEF1) | LEF1 expression vs Control (LEF1) | LEF1 expression, fold increase over Control (LEF1; primary T cells, day 15) | NALM engraftment, luciferase expression in blood (GLuc) (NALM leukemia cell line) [RLU]
1 | shUSP16 #1: shRNA targeting USP16, 5′-GACTGTAAGACTGACAATAAA-3′ (SEQ ID NO: 8), pSIH backbone or co-expressed in CAR plasmid | 1.82 | 1.795 | 1.650 | 38603
2 | shUSP16 #2: shRNA targeting USP16, 5′-TATATCAGTTCACCCGTAAT-3′ (SEQ ID NO: 9), pSIH backbone or co-expressed in CAR plasmid | 1.579 | 1.718 | – | 5169
